Reference: the NIST ThermoML archive (doi:10.1021/je300873x)
± gives the expanded uncertainty stated by the source.

Test: mn = molality of the nth substance listed, in mol/kg
Details: for surface tension liquid-gas: Pendant drop shape; for electrical conductivity: Liquid, Digital conductivity meter

CCCCCCCCCCCCCCCC[N+](C)(C)CCO.[Br-] [N-cetyl-hydroxyethyl-dimethyl ammonium bromide] + O
Details	electrical conductivity [S/m]	surface tension liquid-gas [mN/m]
298.15 K, m1 = 0.00016	–	61.83 ± 0.56
298.15 K, m1 = 0.00033	–	53.61 ± 0.49
298.15 K, m1 = 0.00049	–	45.49 ± 0.43
298.15 K, m1 = 0.00059	–	41.63 ± 0.4
298.15 K, m1 = 0.00069	–	39.31 ± 0.38
298.15 K, m1 = 0.00074	–	38.39 ± 0.38
298.15 K, m1 = 0.00075	0.0068 ± 0.0001	–
298.15 K, m1 = 0.00078	0.007 ± 0.0001	37.61 ± 0.37
298.15 K, m1 = 0.00081	0.0072 ± 0.0001	–
298.15 K, m1 = 0.00083	–	37.58 ± 0.37
298.15 K, m1 = 0.00084	0.0074 ± 0.0001	–
298.15 K, m1 = 0.00088	0.0076 ± 0.0001	37.3 ± 0.37
298.15 K, m1 = 0.00092	0.0078 ± 0.0001	–
298.15 K, m1 = 0.00096	0.0079 ± 0.0001	–
298.15 K, m1 = 0.00098	–	37.24 ± 0.37
298.15 K, m1 = 0.00101	0.008 ± 0.0001	–
298.15 K, m1 = 0.00106	0.0082 ± 0.0001	–
298.15 K, m1 = 0.00108	–	37.15 ± 0.37
298.15 K, m1 = 0.00112	0.0084 ± 0.0001	–
298.15 K, m1 = 0.00118	–	37.12 ± 0.37
298.15 K, m1 = 0.00119	0.0085 ± 0.0001	–
298.15 K, m1 = 0.00126	0.0087 ± 0.0001	–
298.15 K, m1 = 0.00135	0.0089 ± 0.0001	–
298.15 K, m1 = 0.00144	0.0091 ± 0.0001	–
298.15 K, m1 = 0.00156	0.0094 ± 0.0001	–
298.15 K, m1 = 0.00169	0.0097 ± 0.0001	–
298.15 K, m1 = 0.00184	0.0101 ± 0.0001	–
298.15 K, m1 = 0.00202	0.0105 ± 0.0001	–
303.15 K, m1 = 0.00075	0.0076 ± 0.0001	–
303.15 K, m1 = 0.00078	0.0078 ± 0.0001	–
303.15 K, m1 = 0.00081	0.0081 ± 0.0001	–
303.15 K, m1 = 0.00084	0.0083 ± 0.0001	–
303.15 K, m1 = 0.00088	0.0085 ± 0.0001	–
303.15 K, m1 = 0.00092	0.0088 ± 0.0001	–
303.15 K, m1 = 0.00096	0.009 ± 0.0001	–
303.15 K, m1 = 0.00101	0.0091 ± 0.0001	–
303.15 K, m1 = 0.00106	0.0093 ± 0.0001	–
303.15 K, m1 = 0.00112	0.0095 ± 0.0001	–
303.15 K, m1 = 0.00119	0.0097 ± 0.0001	–
303.15 K, m1 = 0.00126	0.0099 ± 0.0001	–
303.15 K, m1 = 0.00135	0.0101 ± 0.0001	–
303.15 K, m1 = 0.00144	0.0104 ± 0.0001	–
303.15 K, m1 = 0.00155	0.0107 ± 0.0001	–
303.15 K, m1 = 0.00168	0.0111 ± 0.0001	–
303.15 K, m1 = 0.00184	0.0114 ± 0.0001	–
303.15 K, m1 = 0.00202	0.0119 ± 0.0001	–
308.15 K, m1 = 0.00075	0.0083 ± 0.0001	–
308.15 K, m1 = 0.00078	0.0086 ± 0.0001	–
308.15 K, m1 = 0.00081	0.0089 ± 0.0001	–
308.15 K, m1 = 0.00084	0.0092 ± 0.0001	–
308.15 K, m1 = 0.00088	0.0095 ± 0.0001	–
308.15 K, m1 = 0.00092	0.0097 ± 0.0001	–
308.15 K, m1 = 0.00096	0.01 ± 0.0001	–
308.15 K, m1 = 0.00101	0.0102 ± 0.0001	–
308.15 K, m1 = 0.00106	0.0105 ± 0.0001	–
308.15 K, m1 = 0.00112	0.0107 ± 0.0001	–
308.15 K, m1 = 0.00119	0.0108 ± 0.0001	–
308.15 K, m1 = 0.00126	0.0111 ± 0.0001	–
308.15 K, m1 = 0.00134	0.0113 ± 0.0001	–
308.15 K, m1 = 0.00144	0.0117 ± 0.0001	–
308.15 K, m1 = 0.00155	0.012 ± 0.0001	–
308.15 K, m1 = 0.00168	0.0125 ± 0.0001	–
308.15 K, m1 = 0.00183	0.0129 ± 0.0001	–
308.15 K, m1 = 0.00202	0.0134 ± 0.0001	–
313.15 K, m1 = 0.00077	0.0094 ± 0.0001	–
313.15 K, m1 = 0.0008	0.0098 ± 0.0001	–
313.15 K, m1 = 0.00084	0.0101 ± 0.0001	–
313.15 K, m1 = 0.00087	0.0105 ± 0.0001	–
313.15 K, m1 = 0.00091	0.0108 ± 0.0001	–
313.15 K, m1 = 0.00096	0.0111 ± 0.0001	–
313.15 K, m1 = 0.00101	0.0114 ± 0.0001	–
313.15 K, m1 = 0.00106	0.0118 ± 0.0001	–
313.15 K, m1 = 0.00112	0.012 ± 0.0001	–
313.15 K, m1 = 0.00118	0.0123 ± 0.0001	–
313.15 K, m1 = 0.00126	0.0126 ± 0.0001	–
313.15 K, m1 = 0.00134	0.0129 ± 0.0001	–
313.15 K, m1 = 0.00144	0.0133 ± 0.0001	–
313.15 K, m1 = 0.00155	0.0137 ± 0.0001	–
313.15 K, m1 = 0.00168	0.0141 ± 0.0001	–
313.15 K, m1 = 0.00183	0.0147 ± 0.0001	–
313.15 K, m1 = 0.00201	0.0154 ± 0.0001	–
318.15 K, m1 = 0.00074	0.0101 ± 0.0001	–
318.15 K, m1 = 0.00077	0.0104 ± 0.0001	–
318.15 K, m1 = 0.0008	0.0109 ± 0.0001	–
318.15 K, m1 = 0.00084	0.0112 ± 0.0001	–
318.15 K, m1 = 0.00087	0.0116 ± 0.0001	–
318.15 K, m1 = 0.00091	0.0119 ± 0.0001	–
318.15 K, m1 = 0.00096	0.0124 ± 0.0001	–
318.15 K, m1 = 0.001	0.0128 ± 0.0001	–
318.15 K, m1 = 0.00106	0.0132 ± 0.0001	–
318.15 K, m1 = 0.00112	0.0137 ± 0.0001	–
318.15 K, m1 = 0.00118	0.014 ± 0.0001	–
318.15 K, m1 = 0.00126	0.0144 ± 0.0001	–
318.15 K, m1 = 0.00134	0.0148 ± 0.0001	–
318.15 K, m1 = 0.00143	0.0152 ± 0.0001	–
318.15 K, m1 = 0.00154	0.0158 ± 0.0001	–
318.15 K, m1 = 0.00167	0.0164 ± 0.0001	–
318.15 K, m1 = 0.00183	0.0169 ± 0.0001	–
318.15 K, m1 = 0.00201	0.0174 ± 0.0001	–
323.15 K, m1 = 0.00074	0.0107 ± 0.0001	–
323.15 K, m1 = 0.00077	0.0111 ± 0.0001	–
323.15 K, m1 = 0.0008	0.0116 ± 0.0001	–
323.15 K, m1 = 0.00083	0.012 ± 0.0001	–
323.15 K, m1 = 0.00087	0.0124 ± 0.0001	–
323.15 K, m1 = 0.00091	0.0129 ± 0.0001	–
323.15 K, m1 = 0.00095	0.0134 ± 0.0001	–
323.15 K, m1 = 0.001	0.014 ± 0.0001	–
323.15 K, m1 = 0.00105	0.0143 ± 0.0001	–
323.15 K, m1 = 0.00111	0.0151 ± 0.0001	–
323.15 K, m1 = 0.00118	0.0157 ± 0.0001	–
323.15 K, m1 = 0.00125	0.016 ± 0.0001	–
323.15 K, m1 = 0.00134	0.0166 ± 0.0001	–
323.15 K, m1 = 0.00143	0.0171 ± 0.0001	–
323.15 K, m1 = 0.00154	0.0176 ± 0.0001	–
323.15 K, m1 = 0.00167	0.0182 ± 0.0001	–
323.15 K, m1 = 0.00182	0.0189 ± 0.0001	–
323.15 K, m1 = 0.002	0.0196 ± 0.0001	–
